3 molecules from ChEMBL document CHEMBL1144795, “Design of high-affinity peptide conjugates with optimized fluorescence quantum yield as markers for small peptide transporter PEPT1 (SLC15A1)” (Bioorg Med Chem Lett, 2008) can be followed below.

This assay deals with T1, Solute carrier family 15 member 1 (Homo sapiens) (UniProt P46059).
T1 sequence (whole entry): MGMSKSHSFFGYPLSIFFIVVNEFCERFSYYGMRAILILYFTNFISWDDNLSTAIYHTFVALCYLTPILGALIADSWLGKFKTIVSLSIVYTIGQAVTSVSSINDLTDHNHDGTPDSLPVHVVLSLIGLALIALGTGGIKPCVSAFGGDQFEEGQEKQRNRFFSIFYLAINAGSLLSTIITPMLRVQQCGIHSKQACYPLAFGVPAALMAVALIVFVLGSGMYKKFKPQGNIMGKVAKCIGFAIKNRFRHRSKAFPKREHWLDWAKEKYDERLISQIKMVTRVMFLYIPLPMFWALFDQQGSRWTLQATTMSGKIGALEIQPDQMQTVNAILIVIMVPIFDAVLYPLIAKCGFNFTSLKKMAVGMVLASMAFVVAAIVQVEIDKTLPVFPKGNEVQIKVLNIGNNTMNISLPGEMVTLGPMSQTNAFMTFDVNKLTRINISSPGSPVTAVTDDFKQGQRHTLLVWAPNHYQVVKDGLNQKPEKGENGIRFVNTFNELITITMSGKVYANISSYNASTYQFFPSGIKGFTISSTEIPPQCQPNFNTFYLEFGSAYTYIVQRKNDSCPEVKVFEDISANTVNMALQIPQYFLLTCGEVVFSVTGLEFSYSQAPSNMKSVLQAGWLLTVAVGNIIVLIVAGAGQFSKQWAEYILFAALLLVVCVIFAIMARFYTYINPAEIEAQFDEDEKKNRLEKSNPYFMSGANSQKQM
The experiment in a line: Inhibition of human PEPT1-mediated [3H]GlySar uptake in CHO cells at 1 mM. It is filed as cell-based.
Molecule `Cc1c(CC(=O)NCCCC[C@H](N)C(=O)N[C@@H](C)C(=O)O)c(=O)oc2cc(N)c(S(=O)(=O)O)cc12` yielded an inhibition below 22%.
As for `Cc1c(CC(=O)NCCCC[C@H](N)C(=O)N[C@@H](CO)C(=O)O)c(=O)oc2cc(N)c(S(=O)(=O)O)cc12`, the inhibition was below 22%.
With `Cc1c(CC(=O)NCCCC[C@H](N)C(=O)N[C@H](C(=O)O)C(C)C)c(=O)oc2cc(N)c(S(=O)(=O)O)cc12`, the inhibition came out at 40%.

The inhibition is the share of the control response that was lost under treatment.
